Source: US11066419B2, “1H-pyrrole-2,5-dione compounds and methods of using same” (Frequency Therapeutics, Inc., priority 2016, dated 2021)

Experiments:
[1] = target: recombinant human GSK3α (Homo sapiens, UniProt P49840); assay: In vitro enzymatic assay for inhibition of GSK3α (Kinase-Glo Max luminescence); format: biochemical; conditions: 10 uM ATP, 0.1 mg/ml GSKtide, 30° C. 40 minutes, read-out: Potency Alpha
Method: (§1) Enzymatic activities using recombinant human GSK3 using an in vitro enzymatic assay for inhibition GSK3α and GSK3β.
(§2) The assay was performed using Kinase-Glo Max luminescence kinase assay kit (Promega). It measures kinase activity by quantitating the amount of ATP remaining in solution following a kinase reaction. The luminescent signal from the assay is correlated with the amount of ATP present and is inversely correlated with the amount of kinase activity. The compounds were diluted in 10% DMSO and 5 μl of the dilution was added to a 50 μl reaction so that the final concentration of DMSO is 1% in all of reactions. The enzymatic reactions were conducted at 30° C. for 40 minutes. The 50 μl reaction mixture contains 40 mM Tris, pH 7.4, 10 mM MgCl2, 0.1 mg/ml BSA, 2 mM DTT, 0.1 mg/ml GSKtide substrate, 10 uM ATP and GSK3. After the enzymatic reaction, 50 μl of Kinase-Glo Max Luminescence kinase assay solution (Promega) was added to each reaction and incubate the plate for 15 minutes at room temperature. Luminescence signal was measured using a BioTek Synergy 2 microplate reader.
(§3) Kinase activity assays were performed in duplicate at each concentration. The luminescence data were analyzed using the computer software, Graphpad Prism. The difference between luminescence intensities in the absence of Kinase (Lut) and in the presence of Kinase (Luc) was defined as 100% activity (Lut−Luc). Using luminescence signal (Lu) in the presence of the compound, % activity was calculated as: % activity={(Lut−Lu)/(Lut−Luc)}×100%, where Lu=the luminescence intensity in the presence of the compound (all percent activities below zero were shown zero in the table).
(§4) The values of % activity versus a series of compound concentrations were then plotted using non-linear regression analysis of Sigmoidal dose-response curve generated with the equation Y=B+(T−B)/1+10((Log EC50−X)×Hill Slope), where Y=percent activity, B=minimum percent activity, T=maximum percent activity, X=logarithm of compound and Hill Slope=slope factor or Hill coefficient. The IC50 value was determined by the concentration causing a half-maximal percent activity.

[2] = target: recombinant human GSK3β (Homo sapiens, UniProt P49841); assay: In vitro enzymatic assay for inhibition of GSK3β (Kinase-Glo Max luminescence); format: biochemical; conditions: 10 uM ATP, 0.1 mg/ml GSKtide, 30° C. 40 minutes, read-out: Potency Beta
Sequence of recombinant human GSK3β (P49841 whole entry): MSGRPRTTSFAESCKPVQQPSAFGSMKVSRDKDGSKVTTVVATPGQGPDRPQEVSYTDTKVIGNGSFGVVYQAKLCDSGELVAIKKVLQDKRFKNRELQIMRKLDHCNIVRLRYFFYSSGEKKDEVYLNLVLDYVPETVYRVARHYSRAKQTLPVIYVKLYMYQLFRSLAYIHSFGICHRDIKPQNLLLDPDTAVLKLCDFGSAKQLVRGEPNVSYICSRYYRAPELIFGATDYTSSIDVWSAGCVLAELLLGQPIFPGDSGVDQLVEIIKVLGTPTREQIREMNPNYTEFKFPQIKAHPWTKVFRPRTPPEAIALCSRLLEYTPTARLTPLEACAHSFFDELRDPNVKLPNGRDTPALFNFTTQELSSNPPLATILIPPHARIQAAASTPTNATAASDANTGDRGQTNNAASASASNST
Method: as §1, §2, §3, §4

[3] = test system: Lgr5-positive cells; assay: Expansion of Lgr5-positive cells (cochlear stem cell expansion, 3D Matrigel culture, flow cytometry for Lgr5-GFP); format: cell-based, mouse; conditions: for EC50: Mus musculus, 240 h, Lgr5-positive cell expansion, cochlear cells of neonatal Lgr5-EGFP-IRES-Cre-ER mice, 10 days in culture, read-out: Potency; for % of Cells: percentage of Lgr5-GFP-positive cells after 10 days (D10) in culture, flow cytometer
Method: Lgr5-EGFP-IRES-Cre-ER mice (Barker et al., 2007) (http://jaxmice.jax.org/strain/008875.html) are used to analyze the effects of small molecules on cochlear stem cell expansion.
Isolation of stem cells from the inner ear: All animal studies are conducted under an approved institutional protocol according to National Institutes of Health guidelines. For experiments with neonatal mice (postnatal days 1-3), the cochleae are dissected in HBSS and the organ of Corti are separated from the stria vascularis and the modiolus. The organs of Corti are then treated with Cell Recovery Solution (Corning) for 1 h to separate cochlear epithelium from the underlying mesenchyme. Epithelia are then collected and treated with TrypLE (Life Technologies) for 15-20 minutes at 37° C. Single cells obtained by mechanical trituration are filtered (40 μm) and suspended in Matrigel (Corning) for 3D culture.
Cells are cultured in a 1:1 mixture of DMEM and F12, supplemented with Glutamax (GIBCO), N2, B27 (Invitrogen), EGF (50 ng/ml; Chemicon), bFGF (50 ng/ml; Chemicon), IGF1 (50 ng/ml; Chemicon) and the composition provided herein. Media are changed every other day.
Lgr5-positive cells are quantified after 10 days (D10) in culture in multiple conditions. Cell colonies are dissociated into single cells using TrypLE (Gibco). The cells are then stained with propidium iodide (PI) and are analyzed using a flow cytometer for Lgr5-GFP expression. The number of GFP-positive cells and the percentage of GFP-positive cells are quantified.

Sequence of recombinant human GSK3α (P49840 whole entry): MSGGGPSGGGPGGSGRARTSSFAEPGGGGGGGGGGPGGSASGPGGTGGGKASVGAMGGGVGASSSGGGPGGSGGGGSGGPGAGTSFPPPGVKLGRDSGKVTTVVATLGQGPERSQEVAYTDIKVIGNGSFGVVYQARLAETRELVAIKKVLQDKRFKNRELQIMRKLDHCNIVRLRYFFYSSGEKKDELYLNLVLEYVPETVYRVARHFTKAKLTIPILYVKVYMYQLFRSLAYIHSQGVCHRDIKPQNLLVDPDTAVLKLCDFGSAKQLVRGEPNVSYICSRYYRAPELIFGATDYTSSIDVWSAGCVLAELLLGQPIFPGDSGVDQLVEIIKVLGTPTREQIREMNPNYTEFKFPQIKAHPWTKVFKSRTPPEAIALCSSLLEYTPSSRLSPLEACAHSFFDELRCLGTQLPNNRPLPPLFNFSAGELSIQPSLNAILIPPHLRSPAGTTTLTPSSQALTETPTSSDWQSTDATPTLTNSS

Row | SMILES | IC50 [1] | IC50 [2] | EC50 [3] | % of Cells [3]
1 | CC(=O)Nc1cc2c3c(c1)c(C1=C(c4cnc5ccccn45)C(=O)NC1=O)cn3CCN(C(=O)N1CCCCC1)C2 [Compound I-10] | 1 to 10 nM | 1 to 10 nM | > 1000 nM | + (“+” indicates about 0-5%)
2 | CN(C)CC1CCN(C(=O)N2CCn3cc(C4=C(c5cnc6ccccn56)C(=O)NC4=O)c4cc(F)cc(c43)C2)CC1 [Compound I-33] | 1 to 10 nM | 1 to 10 nM | 100 to 1000 nM | +++ (“+++” indicates greater than about 11%)
3 | O=C1NC(=O)C(c2cnc3ccccn23)=C1c1cn2c3c(cc(C(F)(F)F)cc13)CN(C(=O)N1CC3CCC(C1)O3)CC2 [Compound I-18] | 1 to 10 nM | 1 to 10 nM |  | 
4 | O=C1NC(=O)C(c2cnc3ccccn23)=C1c1cn2c3c(cc(F)cc13)CN(C(=O)N1CCC(F)(F)CC1)CC2 [Compound I-7] | 1 to 10 nM | 1 to 10 nM | 1 to 100 nM | ++ (“++” indicates about 6-10%)
5 | O=C1NC(=O)C(c2cnc3ccccn23)=C1c1cn2c3c(cc(F)cc13)CN(C(=O)N1CCOCC(F)(F)C1)CC2 [Compound I-27] | 1 to 10 nM | 1 to 10 nM | 1 to 100 nM | +++ (“+++” indicates greater than about 11%)
6 | O=C1NC(=O)C(c2cnc3ccccn23)=C1c1cn2c3c(cc(C(F)(F)F)cc13)CN(C(=O)N1CCOCC(F)(F)C1)CC2 [Compound I-44] | 1 to 10 nM | 1 to 10 nM | 100 to 1000 nM | +++ (“+++” indicates greater than about 11%)
7 | N#Cc1cc2c3c(c1)c(C1=C(c4cnc5ccccn45)C(=O)NC1=O)cn3CCN(C(=O)N1CCCC(F)(F)C1)C2 [Compound I-15] | 1 to 10 nM | 1 to 10 nM | > 1000 nM | ++ (“++” indicates about 6-10%)
8 | CNCC1CCN(C(=O)N2CCn3cc(C4=C(c5cnc6ccccn56)C(=O)NC4=O)c4cc(F)cc(c43)C2)CC1 [Compound I-32] | 1 to 10 nM | 1 to 10 nM | > 1000 nM | +++ (“+++” indicates greater than about 11%)
9 | O=C1NC(=O)C(c2cnc3ccccn23)=C1c1cn2c3c(cc(F)cc13)CN(C(=O)N1CCCC(F)(F)C1)CC2 [Compound I-12] | 1 to 10 nM | 1 to 10 nM | 1 to 100 nM | +++ (“+++” indicates greater than about 11%)
10 | N#Cc1cc2c3c(c1)c(C1=C(c4cnc5ccccn45)C(=O)NC1=O)cn3CCN(C(=O)N1CCC(CO)CC1)C2 [Compound I-21] | 1 to 10 nM | 1 to 10 nM | > 1000 nM | +++ (“+++” indicates greater than about 11%)
11 | O=C1NC(=O)C(c2cnc3ccccn23)=C1c1cn2c3c(cc(F)cc13)CN(C(=O)N1C[C@H]3C[C@@H]1CN3)CC2 [Compound I-13] | 1 to 10 nM | 1 to 10 nM | > 1000 nM | +++ (“+++” indicates greater than about 11%)
12 | O=C1NC(=O)C(c2cn3c4c(cc(F)cc24)CN(C(=O)N2CCCCC2)CC3)=C1c1noc2ccccc12 [Compound I-9] | 10 to 100 nM | 1 to 10 nM | > 1000 nM | +++ (“+++” indicates greater than about 11%)
13 | C#Cc1cc2c3c(c1)c(C1=C(c4cnc5ccccn45)C(=O)NC1=O)cn3CCN(C(=O)N1CCCCC1)C2 [Compound I-3] | 1 to 10 nM | 1 to 10 nM | 1 to 100 nM | +++ (“+++” indicates greater than about 11%)
14 | O=C1NC(=O)C(c2cnc3ccccn23)=C1c1cn2c3c(cc(C(F)(F)F)cc13)CN(C(=O)N1CCC(CO)CC1)CC2 [Compound I-20] | 1 to 10 nM | 1 to 10 nM | > 1000 nM | +++ (“+++” indicates greater than about 11%)
15 | O=C1NC(=O)C(c2cnc3ccccn23)=C1c1cn2c3c(cc(F)cc13)CN(C(=O)N1CC(F)(F)C(F)(F)C(F)(F)C1)CC2 [Compound I-22] | 1 to 10 nM | 1 to 10 nM | 1 to 100 nM | ++ (“++” indicates about 6-10%)
16 | NC1CCN(C(=O)N2CCn3cc(C4=C(c5cnc6ccccn56)C(=O)NC4=O)c4cc(F)cc(c43)C2)CC1 [Compound I-34] | 1 to 10 nM | 1 to 10 nM | > 1000 nM | ++ (“++” indicates about 6-10%)
17 | CN(C)C1CCN(C(=O)N2CCn3cc(C4=C(c5cnc6ccccn56)C(=O)NC4=O)c4cc(F)cc(c43)C2)CC1 [Compound I-36] | 1 to 10 nM | 1 to 10 nM |  | 
18 | N#Cc1cc2c3c(c1)c(C1=C(c4cnc5ccccn45)C(=O)NC1=O)cn3CCN(C(=O)N1CC3CCC(C1)O3)C2 [Compound I-14] | 1 to 10 nM | 1 to 10 nM | > 1000 nM | + (“+” indicates about 0-5%)
19 | CN1CCC(CN(C)C(=O)N2CCn3cc(C4=C(c5cnc6ccccn56)C(=O)NC4=O)c4cc(C#N)cc(c43)C2)CC1 [Compound I-46] | 1 to 10 nM | 1 to 10 nM |  | 
20 | CNC1CCN(C(=O)N2CCn3cc(C4=C(c5cnc6ccccn56)C(=O)NC4=O)c4cc(F)cc(c43)C2)CC1 [Compound I-35] | 1 to 10 nM | 1 to 10 nM | > 1000 nM | + (“+” indicates about 0-5%)
21 | CN(C)C1CCN(C(=O)N2CCn3cc(C4=C(c5cnc6ccccn56)C(=O)NC4=O)c4cc(C#N)cc(c43)C2)CC1 [Compound I-45] | 1 to 10 nM | 1 to 10 nM |  | 
22 | O=C1NC(=O)C(c2nnc3ccccn23)=C1c1cn2c3c(cc(F)cc13)CN(C(=O)N1CCCCC1)CC2 [Compound I-28] | 1 to 10 nM | 1 to 10 nM |  | 
23 | CN1CCC(CN(C)C(=O)N2CCn3cc(C4=C(c5cnc6ccccn56)C(=O)NC4=O)c4cc(F)cc(c43)C2)CC1 [Compound I-39] | 1 to 10 nM | 1 to 10 nM |  | 
24 | O=C1NC(=O)C(c2cnc3ccccn23)=C1c1cn2c3c(cc(F)cc13)CN(C(=O)N1CCC(F)(F)C(O)C1)CC2 (centres unmarked) [Compound I-25] | 1 to 10 nM | 1 to 10 nM |  | 
25 | CN1CCC2(CC1)CCN(C(=O)N1CCn3cc(C4=C(c5cnc6ccccn56)C(=O)NC4=O)c4cc(C#N)cc(c43)C1)C2 [Compound I-47] | 1 to 10 nM | 1 to 10 nM |  | 
26 | CN1CCC2(CC1)CCN(C(=O)N1CCn3cc(C4=C(c5cnc6ccccn56)C(=O)NC4=O)c4cc(F)cc(c43)C1)C2 [Compound I-42] | 1 to 10 nM | 1 to 10 nM |  | 
